Measured values from patent US9301951B2 (Ardelyx, Inc., priority 2010, dated 2016).

How the values were obtained:
[1] = biological target: T1, human NaP2b (SLC34A2) (Homo sapiens, UniProt O95436); assay: Inhibition of NaP2b-mediated Pi (33P) uptake in transfected HEK293 cells, human NaP2b; type: cell-based; conditions: HEK293 cells transfected with human NaP2b, 100 uM phosphate, 0.1 nM to 30 uM, read-out: pIC50 range for human NaP2b (converted)
T1 construct: host or cells: HEK293
T1 sequence (O95436 1-690): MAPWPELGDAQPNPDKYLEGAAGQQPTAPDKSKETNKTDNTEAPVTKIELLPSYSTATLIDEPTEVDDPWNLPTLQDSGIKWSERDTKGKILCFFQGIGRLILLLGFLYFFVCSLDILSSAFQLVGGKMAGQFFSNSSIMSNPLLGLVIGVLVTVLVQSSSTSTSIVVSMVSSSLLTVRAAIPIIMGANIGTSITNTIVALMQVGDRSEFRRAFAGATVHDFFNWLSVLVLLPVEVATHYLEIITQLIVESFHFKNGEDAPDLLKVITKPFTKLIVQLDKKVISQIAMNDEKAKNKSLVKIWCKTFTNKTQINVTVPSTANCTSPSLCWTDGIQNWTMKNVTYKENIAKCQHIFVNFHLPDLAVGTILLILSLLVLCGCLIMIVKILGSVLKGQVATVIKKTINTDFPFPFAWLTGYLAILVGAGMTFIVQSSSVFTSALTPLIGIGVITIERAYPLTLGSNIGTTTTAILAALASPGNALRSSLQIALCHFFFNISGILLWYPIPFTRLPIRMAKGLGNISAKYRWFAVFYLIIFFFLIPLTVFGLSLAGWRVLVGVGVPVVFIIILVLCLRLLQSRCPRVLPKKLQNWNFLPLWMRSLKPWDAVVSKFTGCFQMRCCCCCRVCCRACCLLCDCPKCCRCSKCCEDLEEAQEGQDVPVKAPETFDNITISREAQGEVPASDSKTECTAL
Description: (§1) HEK293 cells were obtained from the American Type Culture collection and propagated per their instructions. Expression clones for rat and human NaP2b (SLC34A2) were obtained from Open Biosystems (Catalog numbers MRN1768-9510282, and MHS1010-99823026, respectively). The sequence of the human protein was mutated to insert a threonine after residue 37, and to introduce a N39D mutation.
The rate of phosphate (Pi) uptake into HEK293 cells was measured using a modification of the method described by Mohrmann et al. (Mohrmann, I., Mohrmann, M., Biber, J., and Murer, H. (1986) Am. J. Phys. 250(3 Pt 1):G323-30.) Transfected HEK293 cells were treated with a pharmacological agent to minimize endogenous PiT-mediated phosphate transport activity, such that the only remaining sodium-dependent phosphate transport activity is that which was bestowed by introduction of the NaP2b genes.
(§2) Cells were seeded into 96-well plates at 25,000 cells/well and cultured overnight. Lipofectamine 2000 (Invitrogen) was used to introduce the NaP2b cDNA, and the cells were allowed to approach confluence during a second overnight incubation. […] Cells were then overlayed with either choline uptake buffer or sodium uptake buffer (14 mM Tris, 137 mM sodium chloride, 5.4 mM KCl, 2.8 mM CaCl2, 1.2 mM MgSO4, 100 uM KH2PO4, PiT-silencing agent, 1 mg/mL Bovine Serum Albumin, pH 7.4) containing 6-9 uCi/mL ^33P orthophosphoric acid (Perkin Elmer) and test compound. Each compound was tested at twelve concentrations ranging from 0.1 nM to 30 uM. Assays were run in duplicate.
After incubation for 3-30 minutes at room temperature, assay mixtures were removed, and the cells were washed twice with ice cold stop solution (137 mM sodium chloride, 14 mM Tris, pH 7.4). Cells were lysed by addition of 20 μL 0.1% Tween 80 followed by 100 μL scintillation fluid, and counted using a TopCount (Perkin Elmer).
(§3) pIC50 (the negative log of the […]) values of the test compounds were calculated using GraphPad Prism.

[2] = biological target: T2, rat NaP2b (SLC34A2) (Rattus norvegicus, UniProt Q9JJ09); assay: Inhibition of NaP2b-mediated Pi (33P) uptake in transfected HEK293 cells, rat NaP2b; type: cell-based; conditions: HEK293 cells transfected with rat NaP2b, 100 uM phosphate, 0.1 nM to 30 uM, read-out: pIC50 range for rat Nap2b (converted)
T2 construct: host or cells: HEK293
T2 sequence (Q9JJ09 1-695): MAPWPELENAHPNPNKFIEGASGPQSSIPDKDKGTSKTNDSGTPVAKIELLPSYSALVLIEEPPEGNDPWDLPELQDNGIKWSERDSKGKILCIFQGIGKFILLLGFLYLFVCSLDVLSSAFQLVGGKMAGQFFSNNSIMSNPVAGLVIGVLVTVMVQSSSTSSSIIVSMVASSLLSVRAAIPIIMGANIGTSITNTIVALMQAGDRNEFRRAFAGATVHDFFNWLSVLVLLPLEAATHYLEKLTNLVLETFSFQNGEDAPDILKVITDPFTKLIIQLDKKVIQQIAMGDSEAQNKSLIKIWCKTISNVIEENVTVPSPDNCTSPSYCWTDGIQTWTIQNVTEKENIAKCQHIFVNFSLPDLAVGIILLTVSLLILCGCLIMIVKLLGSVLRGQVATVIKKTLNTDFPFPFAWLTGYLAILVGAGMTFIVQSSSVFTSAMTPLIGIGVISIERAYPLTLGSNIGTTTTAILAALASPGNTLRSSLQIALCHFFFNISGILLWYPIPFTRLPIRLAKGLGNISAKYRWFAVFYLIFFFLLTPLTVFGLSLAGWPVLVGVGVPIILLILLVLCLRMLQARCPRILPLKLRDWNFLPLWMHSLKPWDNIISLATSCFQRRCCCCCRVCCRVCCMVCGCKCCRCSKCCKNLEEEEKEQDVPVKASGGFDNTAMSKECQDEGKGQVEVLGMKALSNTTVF
Description: as §1, §2
Cells were lysed by addition of 20 μL 0.1% Tween 80 followed by 100 μL scintillation fluid, and counted using a TopCount (Perkin Elmer).
as §3

Row | SMILES | IC50 [1] [µM] | IC50 [2] [µM]
1 | CCN(CC)c1ccc(NC(=O)c2cccc(COCCOCCOCCOCCOC(=O)NC(CO)(CO)CO)c2)c(-c2cc(C(=O)NCc3cccc(C(F)(F)F)c3)ccn2)c1 [Example 177, 1-(3-(4-(diethylamino)-2-(4-(3-(trifluoromethyl)benzylcarbamoyl)pyridin-2-yl)phenylcarbamoyl)phenyl)-2,5,8,11-tetraoxamidecan-13-yl 1,3-dihydroxy-2-(hydroxymethyl)propan-2-ylcarbamate] | 1 to 7.94 | 1 to 7.94
2 | CN(CCN1CCC[C@H]1C(=O)N(C)CCOCCOCCOCCC(=O)OC(C)(C)C)C(=O)c1cccc(C(=O)Nc2ccc(N3CCCCC3)cc2-c2cc(C(=O)N[C@H]3CCCc4ccccc43)ccn2)c1 [Example 190, tert-Butyl 2-methyl-1-((S)-1-(2-(N-methyl-3-((4-(piperidin-1-yl)-2-(4-(((S)-1,2,3,4-tetrahydronaphthalen-1-yl)carbamoyl)pyridin-2-yl)phenyl)carbamoyl)benzamido)ethyl)pyrrolidin-2-yl)-1-oxo-5,8,11-trioxa-2-azatetradecan-14-oate] | 1 to 7.94 | 
3 | CCN(CC)c1ccc(NC(=O)c2cccc(CCCOCCOCCOCCOCCC(=O)N(C)CCOCCOCCOCCOCCOCCOCCOC)c2)c(-c2cc(C(=O)NCc3cccc(C(F)(F)F)c3)ccn2)c1 [Example 259, 2-(5-(diethylamino)-2-(3-(23-methyl-24-oxo-2,5,8,11,14,17,20,27,30,33,36-undecaoxa-23-azanonatriacontan-39-yl)benzamido)phenyl)-N-(3-(trifluoromethyl)benzyl)isonicotinamide] | 1 to 7.94 | 
4 | O=C(O)CCOCCOCCOCCOCCCc1cccc(C(=O)Nc2ccc(OC3CCC3)cc2-c2cc(C(=O)N[C@H]3CCCc4ccccc43)ccn2)c1 [Example 285, (S)-16-(3-((4-cyclobutoxy-2-(4-((1,2,3,4-tetrahydronaphthalen-1-yl)carbamoyl)pyridin-2-yl)phenyl)carbamoyl)phenyl)-4,7,10,13-tetraoxahexadecan-1-oic acid] | < 1 | 
5 | CCN(CC)c1ccc(NC(=O)c2cccc(CCCOCCOCCOCCOCCNS(=O)(=O)c3ccc(C(=O)N4CCN(CCOCCOCCOCCOCCOCCOCCOC)C(=O)C4)cc3)c2)c(-c2cc(C(=O)NCc3cccc(C(F)(F)F)c3)ccn2)c1 [Example 288, 2-(2-(3-(1-(4-(4-(2,5,8,11,14,17,20-heptaoxadocosan-22-yl)-3-oxopiperazine-1-carbonyl)phenylsulfonamido)-3,6,9,12-tetraoxapentadecan-15-yl)benzamido)-5-(diethylamino)phenyl)-N-(3-(trifluoromethyl)benzyl)isonicotinamide] | 1 to 7.94 | 

Second part, the compound after the results:

Row | IC50 [1] [µM] | IC50 [2] [µM] | SMILES
6 | 10 to 31.6 | 10 to 31.6 | CCN(CC)c1ccc(NC(=O)c2cccc(CS(=O)(=O)CCOCCOCCOCCOCCC(=O)O)c2)c(-c2cc(C(=O)NCc3cccc(C(F)(F)F)c3)ccn2)c1 [Example 167, 1-(((3-((4-(diethylamino)-2-[4-(((3-(trifluoromethyl)phenyl]methyl)carbamoyl)pyridin-2-yl)phenyl)carbamoyl)phenyl)methane)sulfonyl)-3,6,9,12-tetraoxapentadecan-15-oic acid]
7 | 1 to 7.94 | 1 to 7.94 | CCN(CC)c1ccc(NC(=O)c2cccc(COCCOCCOCCOCCOC(=O)N(CCO)CCO)c2)c(-c2cc(C(=O)NCc3cccc(C(F)(F)F)c3)ccn2)c1 [Example 176, 1-(3-(4-(diethylamino)-2-(4-(3-(trifluoromethyl)benzylcarbamoyl)pyridin-2-yl)phenylcarbamoyl)phenyl)-2,5,8,11-tetraoxamidecan-13-yl bis(2-hydroxyethyl)carbamate]
8 | < 1 |  | CCN(CC)c1ccc(NC(=O)c2cccc(CCCOCCOCCOCCOCCC(=O)NCCOCCOCCOCCOCCOCCOCCOC)c2)c(-c2cc(C(=O)NCc3cccc(C(F)(F)F)c3)ccn2)c1 [Example 260, 2-(5-(diethylamino)-2-(3-(24-oxo-2,5,8,11,14,17,20,27,30,33,36-undecaoxa-23-azanonatriacontan-39-yl)benzamido)phenyl)-N-(3-(trifluoromethyl)benzyl)isonicotinamide]
9 | < 1 |  | CCN(CC)c1ccc(NC(=O)c2cccc(CCCOCCOCCOCCOCCNC(=O)c3cccc(CCCOCCOCCOCCOCCOCCOCCOCCOCCOC)c3)c2)c(-c2cc(C(=O)NCc3cccc(C(F)(F)F)c3)ccn2)c1 [Example 271, 2-(2-(3-(1-(3-(2,5,8,11,14,17,20,23,26-nonaoxanonacosan-29-yl)phenyl)-1-oxo-5,8,11,14-tetraoxa-2-azaheptadecan-17-yl)benzamido)-5-(diethylamino)phenyl)-N-(3-(trifluoromethyl)benzyl)isonicotinamide]
10 | 1 to 7.94 |  | CCN(CC)c1ccc(NC(=O)c2cccc(CCCOCCOCCOCCOCCNS(=O)(=O)c3ccc(C(=O)N(C)CCOCCOCCOCCOCCOCCOCCOC)cc3)c2)c(-c2cc(C(=O)NCc3cccc(C(F)(F)F)c3)ccn2)c1 [Example 287, 2-(2-(3-(1-(4-(2,5,8,11,14,17,20-heptaoxadocosan-22-yl(methyl)carbamoyl)phenylsulfonamido)-3,6,9,12-tetraoxapentadecan-15-yl)benzamido)-5-(diethylamino)phenyl)-N-(3-(trifluoromethyl)benzyl)isonicotinamide]
11 | 1 to 7.94 |  | CCN(CC)c1ccc(NC(=O)c2cccc(CCCOCCOCCOCCOCCNS(=O)(=O)c3ccc(CCC(=O)NCCOCCOCCOCCOCCOCCOCCOC)cc3)c2)c(-c2cc(C(=O)NCc3cccc(C(F)(F)F)c3)ccn2)c1 [Example 296, 2-(5-(diethylamino)-2-(3-(1-(4-(24-oxo-2,5,8,11,14,17,20-heptaoxa-23-azahexacosan-26-yl)phenylsulfonamido)-3,6,9,12-tetraoxapentadecan-15-yl)benzamido)phenyl)-N-(3-(trifluoromethyl)benzyl)isonicotinamide]
12 |  | 1 to 7.94 | CCN(CC)c1ccc(NC(=O)c2cccc(C(=O)N(C)CCN(C)CCOCCOCCOCCNC(=O)C(C)(C)C)c2)c(-c2cc(C(=O)NCc3cccc(C(F)(F)F)c3)ccn2)c1 [Example 346, N^1-(4-(diethylamino)-2-(4-(3-(trifluoromethyl)benzylcarbamoyl)pyridin-2-yl)phenyl)-N^3-methyl-N^3-(3,17,17-trimethyl-16-oxo-6,9,12-trioxa-3,15-diazaoctadecyl)isophthalamide]
